Data taken from PubChem BioAssay (NCI).
Where “and” joins values, the source holds several entries; their conditions need not be identical. Identical values can stand only once.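 Cultured in 96-well plates, cells were exposed to test compound for 48 hours across five concentrations. Abbreviation: GI50, concentration required for 50% inhibition of growth. At the TGI there is no net growth.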

Assays:
Assay in all cases: NCI anticancer screen, dose series, 48 h
[1] = test system: SN12C renal
[2] = test system: HCC-2998 colon
[3] = test system: CCRF-CEM leukemia
[4] = test system: KM12 colon
[5] = test system: CAKI-1 renal
[6] = test system: HOP-92 NSCLC
[7] = test system: UO-31 renal
[8] = test system: SK-MEL-2 melanoma
[9] = test system: A549 NSCLC
[10] = test system: NCI-H23 lung

Compound	GI50 [1]	TGI [1]	GI50 [2]	TGI [2]	GI50 [3]	TGI [3]	GI50 [4]	TGI [4]	GI50 [5]	TGI [5]	GI50 [6]	TGI [6]	GI50 [7]	TGI [7]	GI50 [8]	TGI [8]	GI50 [9]	TGI [9]	GI50 [10]	TGI [10]
Cc1ccccc1NC(=O)N/C(N)=N/c1nc(-c2cccc([N+](=O)[O-])c2)cs1	3.37 µM	30.5 µM	3.16 µM	> 100 µM	3 µM	> 100 µM	2.49 µM	> 100 µM	1.16 µM	3.16 µM	2.15 µM	6.6 µM	1.29 µM	3.83 µM	3.21 µM	17.3 µM	2.39 µM	6.98 µM	1.94 µM	6.49 µM
CC(C)=CCCC(C)c1ccc(C)c2c1OCN(CC1CCNCC1)C2 (stereo not given)	14.2 µM	28.9 µM	3.74 µM	12.3 µM	–	–	12.3 µM	26 µM	17.7 µM	36.8 µM	–	–	12.8 µM	27.3 µM	18.2 µM	35.5 µM	13 µM	27.8 µM	15.7 µM	33.6 µM
CCN1CCN(C(=O)[C@]23CC[C@@H](C)[C@H](C)[C@@H]2C2=CC[C@@H]4[C@@]5(C)C/C(=C/c6ccncc6)C(=O)C(C)(C)[C@@H]5CC[C@@]4(C)[C@]2(C)CC3)CC1	1.63 µM	2.99 µM	1.5 µM	3.03 µM	2.42 µM	6.28 µM	1.87 µM	3.66 µM	1.32 µM	2.8 µM	1.14 µM	2.51 µM	1.37 µM	2.65 µM	1.91 µM	3.84 µM	1.78 µM	3.72 µM	1.75 µM	3.41 µM
O=[N+]([O-])c1cccc(/C=N\NS(=O)(=O)c2ccc(Cl)cc2)c1O	–	> 100 µM	–	> 100 µM	–	> 100 µM	–	> 100 µM	–	> 100 µM	–	> 100 µM	–	> 100 µM	–	> 100 µM	–	> 100 µM	–	> 100 µM
COc1cc2c(cc1OCCCOc1cc3c(cc1OC)C(=O)N1C[C@H](F)C[C@H]1C=N3)N=C[C@@H]1C[C@@H](F)CN1C2=O	5.6 µM	19.2 µM	–	–	3.8 µM	51.7 µM	12.7 µM	26.7 µM	4.83 µM	17.6 µM	5.18 µM	18 µM	13.2 µM	26 µM	2.04 µM	5.71 µM	13.6 µM	28.5 µM	5.83 µM	17.8 µM
CCOC(=O)Nc1nc2ccc(Cn3cccc3)cc2[nH]1	–	> 100 µM	–	> 26.5 µM	–	25.1 µM	–	> 100 µM	–	> 100 µM	–	> 100 µM	–	> 100 µM	–	> 100 µM	–	> 100 µM	–	> 100 µM
CC[C@@H]1OC2(C)CC(S(=O)(=O)c3ccccc3O)CC1O2 (stereo not given in full)	–	> 100 µM	–	> 100 µM	–	> 100 µM	–	> 100 µM	–	> 100 µM	–	> 100 µM	–	> 100 µM	–	> 100 µM	–	> 100 µM	–	> 100 µM
COC(=O)c1s/c(=N\C(=S)N(C)C)n(-c2ccccc2)c1C(=O)OC	–	> 100 µM	–	> 100 µM	–	–	–	> 100 µM	–	> 100 µM	–	> 100 µM	–	> 100 µM	–	> 100 µM	–	> 100 µM	–	> 100 µM
CCN(CC)CC(O)CNc1ccc(NCC2CO2)c2c1C(=O)c1ccccc1C2=O (stereo not given)	0.177 µM	0.899 µM	0.587 µM	2.77 µM	–	–	–	1.74 µM	0.757 µM	2.59 µM	–	6.39 µM	0.391 µM	3.35 µM	–	0.785 µM and 0.839 µM	–	5.69 µM	0.26 µM	5.2 µM
Cc1c(NC(=O)C(C)(C)Br)c(=O)oc2c(C)c3occc(=O)c3cc12	–	> 100 µM	–	> 100 µM	–	> 100 µM	–	–	–	–	–	–	–	76.2 µM	–	> 100 µM	–	> 100 µM	–	> 100 µM
NOCC(=O)O	> 100 µM	> 100 µM	> 100 µM	> 100 µM	94 µM	> 100 µM	> 100 µM	> 100 µM	> 100 µM	> 100 µM	–	–	> 100 µM	> 100 µM	> 100 µM	> 100 µM	49.5 µM	> 100 µM	> 100 µM	> 100 µM
CC1C[C@@]2(c3ccccc3)C(=O)CCC[C@H]2N1 (stereo not given in full)	–	> 100 µM	–	–	–	> 100 µM	–	> 100 µM	–	> 100 µM	–	> 100 µM	–	> 100 µM	–	> 100 µM	–	> 100 µM	–	> 100 µM
COc1cc(/C=C(\C#N)C(=O)c2ccccc2)ccc1OCc1ccccc1	–	> 100 µM	–	> 100 µM	–	> 100 µM	–	> 100 µM	–	> 100 µM	–	–	–	> 100 µM	–	> 100 µM	–	> 100 µM	–	> 100 µM
NC(=O)C(=Cc1ccc(C(O)P(=O)(O)O)cc1)C(N)=O (stereo not given)	–	> 100 µM	–	> 100 µM	–	–	–	> 100 µM	–	> 100 µM	–	> 100 µM	–	> 100 µM	–	> 100 µM	–	> 100 µM	–	> 100 µM
Cc1cc(Cl)ccc1NC(=O)CCCC(=O)C1CCCC1=O (stereo not given)	–	> 100 µM	–	> 100 µM	–	> 100 µM	–	> 100 µM	–	> 100 µM	–	–	–	> 100 µM	–	> 100 µM	–	> 100 µM	–	> 100 µM
CC(=O)CC(=O)Nc1ccc2ccccc2c1	–	> 100 µM	–	–	–	> 100 µM	–	> 100 µM	–	> 100 µM	–	> 100 µM	–	–	–	> 100 µM	–	> 100 µM	–	> 100 µM
COc1ccc([N+]2=NC(c3ccc([N+](=O)[O-])cc3)=NN(c3ccccc3)C2)cc1	–	> 100 µM	–	> 100 µM	–	92.8 µM and 52.1 µM	–	> 100 µM	–	–	–	–	–	> 100 µM	–	–	–	> 100 µM	–	> 100 µM
Cc1c[nH]c2c(O)cc3c(c12)[C@H](CCl)CN3C(=O)c1cc2cc(NC(=O)Nc3ccc4[nH]c(C(=O)N5C[C@@H](CCl)c6c5cc(O)c5[nH]cc(C)c65)cc4c3)ccc2[nH]1	–	–	–	–	–	–	–	15 nM and 28.1 µM and 3e-06 µg/mL	0.000268 µM	–	–	> 100 µM and 0.00813 µg/mL	0.0291 µM	–	–	89.3 µM and 8.9e-06 µg/mL and 0.00276 µg/mL	1.31 nM and 0.000888 µg/mL	75.5 µM and 0.00228 µg/mL	–	–
